Results from patent US11351147B2, “Short syntheses of (−)-picrotoxinin and related compounds” (The Scripps Research Institute, priority 2020, dated 2022).
Values joined by “and” are separate entries in the source; they are usually repeats but may differ in a detail not shown here. Equal entries are not always repeated.

How the values were obtained:
Rat GABAA Ion Channel = test: Non-selective Rat GABAA Ion Channel [3H] TBOB Binding (Antagonist Radioligand) Assay; conditions: displacement of [3H] TBOB, rat cerebral cortex GABAA receptors
Procedure: A Non-selective Rat GABAA Ion Channel [3H] TBOB Binding (Antagonist Radioligand) Assay (Catalog #3817) was conducted by Eurofins Pharma Discovery Service of Eurofins Cerep, France. The assay is based on these publications: Lewin, A. H. et al. Mol. Pharmacol. 1989, 35, 189, and Schwartz, R. D.; Mindlin, M. C. J. Pharmacol. Exp. Ther. 1987, 244, 963.
Compound binding was calculated as a percentage inhibition of the binding of the radioactive ligand [3H] TBOB (t-[3H]Butylbicycloorthobenzoate) for RAT GABAA Ion Channels.
A 20.0 mM stock solution was prepared in DMSO from pure solid 5-methyl-picrotoxinin (20) to evaluate radioligand displacement of [3H] TBOB from rat cerebral cortex GABAA receptors at final concentrations of 200 μM, 63 μM, 20 μM, 6.3 μM, 2.0 μM, and 0.6 μM.

[1] = Hydrolytic stability study in pH 8 phosphate buffer (NMR monitoring); format: physicochemical; conditions: for Concentration over Time: 100 mM phosphate buffer pH=8 (D2O); for ln of concentration: pH=8 buffer
Procedure: In separate 5 mm NMR tubes, picrotoxinin (1, 1 mg) or 5-methyl picrotoxinin (20, 1 mg) were dissolved in 1 mL of 100 mM phosphate buffer (pH=8, prepared with D20). Spectra were acquired at 0, 6, 12, 24, 36, 48, 60, 72, 84, 96, and 120 h. and monitored for the amount of hydrolysis product (Table 1).

mice = conditions: cited from earlier work

With `C=C(C)C1C2OC(=O)C1C1(O)C[C@H]3O[C@]34C(=O)OC2C14C` (single isomer, unassigned; (-)) [compound 1, (−)-picrotoxinin] the IC50 (Rat GABAA Ion Channel) was 0.2 µM, the Ki (Rat GABAA Ion Channel) was 0.2 µM and the “Concentration over Time” value ([1]; 0 h) was 3420 µM. For the same molecule, the “Concentration over Time” value ([1]; 6 h) was 3257 µM, the “Concentration over Time” value ([1]; 12 h) was 2974 µM and the “Concentration over Time” value ([1]; 24 h) was 2124 µM. For the same molecule, the “Concentration over Time” value ([1]; 36 h) was 1879 µM, the “Concentration over Time” value ([1]; 48 h) was 1413 µM and the “Concentration over Time” value ([1]; 60 h) was 1281 µM. The “Concentration over Time” value ([1]; 72 h) was 1167 µM, the “Concentration over Time” value ([1]; 84 h) was 914.4 µM and the “Concentration over Time” value ([1]; 96 h) was 775.5 µM. For the same molecule, the “Concentration over Time” value ([1]; 120 h) was 529.4 µM, the ln of concentration ([1]; 0 h) was 1.23 and the ln of concentration ([1]; 6 h) was 1.181. The ln of concentration ([1]; 12 h) was 1.09, the ln of concentration ([1]; 24 h) was 0.7534 and the ln of concentration ([1]; 36 h) was 0.6308. The ln of concentration ([1]; 48 h) was 0.3459, the ln of concentration ([1]; 60 h) was 0.2476 and the ln of concentration ([1]; 72 h) was 0.1546. The ln of concentration ([1]; 84 h) was −0.08945, the ln of concentration ([1]; 96 h) was −0.2542 and the ln of concentration ([1]; 120 h) was −0.636.

For `C[C@@H]1CC[C@]23OC(=O)[C@@]4(O)O[C@H](C[C@@]124)[C@@]1(O)C(=O)OC[C@@]31C` [jiadifenolide], the convulsive signature (mice) is given as “no convulsive signature”.

In the case of `C=C(C)C1C2OC(=O)C1(C)C1(O)C[C@H]3O[C@]34C(=O)OC2C14C` (stereo partly drawn) [compound 20, 5-methylpicrotoxinin], the IC50 (Rat GABAA Ion Channel) is reported as 9.2 µM and 9 µM, the Ki (Rat GABAA Ion Channel) is reported as 8.2 µM and the “Concentration over Time” value ([1]; 0 h) is reported as 3270 µM. The “Concentration over Time” value ([1]; 6 h) was 3000 µM, the “Concentration over Time” value ([1]; 12 h) was 2771 µM and the “Concentration over Time” value ([1]; 24 h) was 2440 µM. For the same molecule, the “Concentration over Time” value ([1]; 36 h) was 2195 µM, the “Concentration over Time” value ([1]; 48 h) was 2031 µM and the “Concentration over Time” value ([1]; 60 h) was 1912 µM. The “Concentration over Time” value ([1]; 72 h) was 1797 µM, the “Concentration over Time” value ([1]; 84 h) was 1686 µM and the “Concentration over Time” value ([1]; 96 h) was 1643 µM. The “Concentration over Time” value ([1]; 120 h) was 1535 µM, the “aqueous stability compared with compound (1)” value ([1]; pH 8) was “slightly improved” and the “pseudo-first order rate constant compared with compound (1)” value ([1]; pH 8) was “more than halving”. For the same molecule, the ln of concentration ([1]; 0 h) was 1.185, the ln of concentration ([1]; 6 h) was 1.099 and the ln of concentration ([1]; 12 h) was 1.019. The ln of concentration ([1]; 24 h) was 0.8921, the ln of concentration ([1]; 36 h) was 0.786 and the ln of concentration ([1]; 48 h) was 0.7086. For the same molecule, the ln of concentration ([1]; 60 h) was 0.6483, the ln of concentration ([1]; 72 h) was 0.586 and the ln of concentration ([1]; 84 h) was 0.5221. The ln of concentration ([1]; 96 h) was 0.4967 and the ln of concentration ([1]; 120 h) was 0.4287.
